Reference: patent US9550763B2, “Heterocyclic ring and carbocyclic derivative” (Shionogi & Co., Ltd., priority 2012, dated 2017)

Target: human P2X3 receptor (Homo sapiens (Human), UniProt P56373)
Assay: Evaluation of human P2X3 receptor inhibitory activity (Test Example 1-2, FLIPR 384, 384-well, 150 nM ATP)
Type: cell-based
Settings: C6BU-1 cell transfected with human P2X3 receptor gene; method of Test Example 1-2 (compounds I-301 to I-483); read-out: IC50 (human P2X3 receptor inhibitory activity)
In short: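 Human P2X3 stably expressed in C6BU-1 cells, Fluo-3-AM loaded, read on FLIPR at pH 7.5 HEPES buffer. Compound added 5 min before 150 nM ATP; peak/baseline fluorescence over 4 min gave inhibition (buffer instead of ATP = 100%), from which IC50 was derived.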

human P2X3 receptor, sequence (P56373 whole entry): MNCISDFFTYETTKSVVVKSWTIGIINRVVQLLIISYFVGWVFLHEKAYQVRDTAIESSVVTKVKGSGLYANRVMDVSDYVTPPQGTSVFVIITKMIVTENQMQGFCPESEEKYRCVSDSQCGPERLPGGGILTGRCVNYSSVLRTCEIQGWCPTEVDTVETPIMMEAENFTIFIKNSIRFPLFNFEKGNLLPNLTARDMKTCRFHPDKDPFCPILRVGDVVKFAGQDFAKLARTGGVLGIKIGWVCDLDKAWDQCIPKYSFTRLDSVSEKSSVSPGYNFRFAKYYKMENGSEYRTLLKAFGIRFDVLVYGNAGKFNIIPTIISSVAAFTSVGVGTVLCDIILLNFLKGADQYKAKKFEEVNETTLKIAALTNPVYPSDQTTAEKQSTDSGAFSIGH

`O=c1cc[nH]/c(=N\c2ccc(Oc3ccon3)cc2)n1Cc1ccc(Cl)cc1` [Compound I-447] and `O=C(O)c1cccc(Oc2ccc(/N=c3\[nH]ccc(=O)n3Cc3ccc(Cl)cc3)cc2)n1` [Compound I-448] cannot be ordered by IC50: under 30000 nM for the first, under 30000 nM for the second.

`O=C(O)c1cccc(Oc2ccc(Nc3nc4ccccc4n3Cc3ccc(Cl)cc3)cc2)n1` [Compound I-455] and `O=C(O)c1cccc(Oc2ccc(Nc3nc4ccccc4n3Cc3ccc(F)cc3)cc2)n1` [Compound I-470] cannot be ordered by IC50: under 30000 nM for the first, under 30000 nM for the second.

`O=C(O)c1cn(Cc2ccc(Cl)cc2)c2cc(Nc3ccc(Oc4ccc(F)cn4)cc3)ccc2c1=O` [Compound I-461] and `CN(C)c1ccc(Nc2ccc(Oc3ccc(F)cn3)cc2)c(Cc2ccc(Cl)cc2)c1` [Compound I-464, 1-(4-chlorobenzyl)-3-dimethylamino-6-[4-(5-fluoro-2-pyridyloxy)phenylamino]benzene] cannot be ordered by IC50: under 30000 nM for the first, under 30000 nM for the second.

`COC(=O)c1cccc(Oc2ccc(Nc3ccn(C(C)C)c(=O)c3Cc3ccc(Cl)cc3)cc2)n1` [Compound I-465, 3-(4-chloro-benzyl)-1-isopropyl-4-[4-(6-methoxycarbonyl-2-pyridyloxy)phenylamino]pyridin-2(1H)-one] and `CC(C)n1ccc(Nc2ccc(Oc3cccc(C(N)=O)n3)cc2)c(Cc2ccc(Cl)cc2)c1=O` [Compound I-467] cannot be ordered by IC50: under 30000 nM for the first, under 30000 nM for the second.

With `CC(C)(C)c1cc(Nc2ccc(Oc3cccc(C(N)=O)n3)cc2)n(Cc2ccc(Cl)cc2)n1` [Compound I-468, 3-t-butyl-1-(4-chlorobenzyl)-5-[4-(6-carbamoyl-2-pyridyloxy)phenylamino]pyrazole] the IC50 was under 30000 nM.

Same assay, conditions: human P2X3 receptor in C6BU-1 cells; Test Example 1-2 (compounds I-301 to I-483); read-out: P2X3 IC50

Point of comparison: `O=c1c(-c2ncno2)c[nH]/c(=N\c2ccc(Oc3ccon3)cc2)n1Cc1ccc(Cl)cc1` [Compound I-449], IC50 179 nM. Against it:
- Cc1nc(Nc2cc(=O)n(CC(F)(F)C(=O)O)c(=O)n2Cc2ccc(Cl)cc2)ccc1Oc1ccc(F)cn1 [Compound I-405] — 36-fold lower, 5 nM
- C#CCNC(=O)c1c[nH]/c(=N\c2ccc(Oc3cccc(F)n3)cc2)n(Cc2ccc(Cl)cc2)c1=O [Compound I-406] — 22-fold lower, 8 nM
- O=C(NCC1CC1)c1c[nH]/c(=N\c2ccc(Oc3cccc(F)n3)cc2)n(Cc2ccc(Cl)cc2)c1=O [Compound I-407] — 2.6-fold lower, 68 nM
- N#Cc1cccc(Oc2ccc(/N=c3\[nH]cc(-c4ccccc4)c(=O)n3Cc3ccc(Cl)cc3)cc2)n1 [Compound I-408, 1-(4-chlorobenzyl)-2-[4-(6-cyano-2-pyridyloxy)phenylamino]-5-phenylpyrimidin-6(1H)-one] — 2.3-fold higher, 407 nM
- CC(C)c1c[nH]/c(=N\c2ccc(Oc3ccnc(C(=O)O)c3)cc2)n(Cc2ccc(Cl)cc2)c1=O [Compound I-409] — 7.5-fold lower, 24 nM
- CCOC(=O)c1cnc(Oc2ccc(/N=c3\[nH]cc(C(C)C)c(=O)n3Cc3ccc(Cl)cc3)cc2)s1 [Compound I-410] — 3.5-fold higher, 626 nM
- CCC(=O)Nc1c[nH]/c(=N\c2ccc(Oc3ccc(C(F)(F)F)nn3)cc2)n(Cc2ccc(Cl)cc2)c1=O [Compound I-411] — 18-fold lower, 10 nM
- CC(C)c1c[nH]/c(=N\c2ccc(Oc3ncc(C(=O)O)s3)cc2)n(Cc2ccc(Cl)cc2)c1=O [Compound I-412] — 20-fold lower, 9 nM
- Cc1c[nH]c2cc(Nc3ncc(NC(=O)C4CCOCC4)c(=O)n3Cc3ccc(Cl)cc3)ccc12 [Compound I-413] — 5-fold higher, 897 nM
- Cc1c[nH]c2ccc(Nc3ncc(NC(=O)C4CCOCC4)c(=O)n3Cc3ccc(Cl)cc3)cc12 [Compound I-414] — 2.2-fold higher, 392 nM
- CCc1c[nH]c2cc(Nc3ncc(NC(=O)C4CCOCC4)c(=O)n3Cc3ccc(Cl)cc3)ccc12 [Compound I-416] — 2.3-fold higher, 406 nM
- O=C(NCCCO)c1cn(Cc2ccc(Cl)cc2)c(Nc2ccc(Oc3cccc(F)n3)cc2)nc1=O [Compound I-418] — 4-fold lower, 45 nM
- O=C(NCc1ccoc1)c1cn(Cc2ccc(Cl)cc2)c(Nc2ccc(Oc3cccc(F)n3)cc2)nc1=O [Compound I-419] — 3.3-fold lower, 55 nM
- Cc1cc(CNC(=O)c2cn(Cc3ccc(Cl)cc3)c(Nc3ccc(Oc4cccc(F)n4)cc3)nc2=O)no1 [Compound I-420] — 2-fold lower, 88 nM
- O=C(Nc1cc[nH]n1)c1cn(Cc2ccc(Cl)cc2)c(Nc2ccc(Oc3cccc(F)n3)cc2)nc1=O [Compound I-421] — 11-fold lower, 17 nM
- O=C(O)c1cccc(Oc2ccc(/N=c3\[nH]cc(-c4ccccc4)c(=O)n3Cc3ccc(Cl)cc3)cc2)n1 [Compound I-422] — 60-fold lower, 3 nM
- NNC(=O)c1c[nH]/c(=N\c2ccc(Oc3ccon3)cc2)n(Cc2ccc(Cl)cc2)c1=O [Compound I-423] — 2.2-fold lower, 81 nM
- N#CCNC(=O)c1c[nH]/c(=N\c2ccc(Oc3ccon3)cc2)n(Cc2ccc(Cl)cc2)c1=O [Compound I-425] — 8.5-fold lower, 21 nM
- N#CCNC(=O)c1c[nH]/c(=N\c2ccc(Oc3ccc(F)cn3)cc2)n(Cc2ccc(Cl)cc2)c1=O [Compound I-426] — 12-fold lower, 15 nM
- C#CCNC(=O)c1c[nH]/c(=N\c2ccc(Oc3ccc(F)cn3)cc2)n(Cc2ccc(Cl)cc2)c1=O [Compound I-427] — 36-fold lower, 5 nM
- CCOc1cn(Cc2ccc(Cl)cc2)c(Nc2ccc(Oc3cccc(C#N)n3)cc2)nc1=O [Compound I-429] — 2.5-fold higher, 441 nM
- CNC(=O)CNC(=O)c1cn(Cc2ccc(Cl)cc2)c(Nc2ccc(Oc3cccc(F)n3)cc2)nc1=O [Compound I-430] — 2.2-fold lower, 83 nM
- NC(=O)CNC(=O)c1cn(Cc2ccc(Cl)cc2)c(Nc2ccc(Oc3cccc(F)n3)cc2)nc1=O [Compound I-431] — 4.1-fold lower, 44 nM
- CCC(=O)Nc1c[nH]/c(=N\c2ccc(Oc3cc(C)c(Cl)nn3)cc2)n(Cc2ccc(Cl)cc2)c1=O [Compound I-432] — 15-fold lower, 12 nM
- CCC(=O)Nc1c[nH]/c(=N\c2ccc(Oc3cc(C)cnn3)cc2)n(Cc2ccc(Cl)cc2)c1=O [Compound I-433] — 1.8-fold lower, 99 nM
- CCCc1c[nH]/c(=N\c2ccc(Oc3cccc(C#N)n3)cc2)n(Cc2ccc(Cl)cc2)c1=O [Compound I-434] — within 1.5-fold, 193 nM
- O=C(Nc1c[nH]/c(=N\c2ccc(Oc3ccc(C(F)(F)F)nn3)cc2)n(Cc2ccc(Cl)cc2)c1=O)C1CCOCC1 [Compound I-435] — 60-fold lower, 3 nM
- CCCc1c[nH]/c(=N\c2ccc(Oc3cccc(C(=O)O)n3)cc2)n(Cc2ccc(Cl)cc2)c1=O [Compound I-436] — 14-fold lower, 13 nM
- CCOC(=O)c1noc(-c2c[nH]/c(=N\c3ccc(Oc4ccon4)cc3)n(Cc3ccc(Cl)cc3)c2=O)n1 [Compound I-437] — within 1.5-fold, 124 nM
- COC(=O)c1nnc(-c2c[nH]/c(=N\c3ccc(Oc4ccon4)cc3)n(Cc3ccc(Cl)cc3)c2=O)o1 [Compound I-438] — 1.6-fold lower, 109 nM
- O=c1c(-c2nnco2)c[nH]/c(=N\c2ccc(Oc3ccon3)cc2)n1Cc1ccc(Cl)cc1 [Compound I-439] — 3.8-fold lower, 47 nM
- O=C(O)c1cccc(Oc2ccc(/N=c3\[nH]cc(Br)c(=O)n3Cc3ccc(Cl)cc3)cc2)n1 [Compound I-440] — 12-fold lower, 15 nM
- NC(=O)c1noc(-c2c[nH]/c(=N\c3ccc(Oc4ccon4)cc3)n(Cc3ccc(Cl)cc3)c2=O)n1 [Compound I-441] — 2.6-fold lower, 69 nM
- CNC(=O)c1noc(-c2c[nH]/c(=N\c3ccc(Oc4ccon4)cc3)n(Cc3ccc(Cl)cc3)c2=O)n1 [Compound I-442] — 2.2-fold lower, 80 nM
- C[C@@H](NC(=O)c1cn(Cc2ccc(Cl)cc2)c(Nc2ccc(Oc3cccc(F)n3)cc2)nc1=O)C(N)=O [Compound I-443] — 5-fold lower, 36 nM
- COC(=O)C(C)(C)Cn1c(=O)cc(Nc2ccc(Oc3ccc(F)cn3)c(C)n2)n(C[C@H]2CC[C@H](C)CC2)c1=O [Compound I-444] — 20-fold lower, 9 nM
- Cc1nc(Nc2cc(=O)n(CC(C)(C)C(=O)O)c(=O)n2C[C@H]2CC[C@H](C)CC2)ccc1Oc1ccc(F)cn1 [Compound I-445] — 26-fold lower, 7 nM
- COC(=O)[C@H](CO)NC(=O)c1c[nH]/c(=N\c2ccc(Oc3ccon3)cc2)n(Cc2ccc(Cl)cc2)c1=O [Compound I-446] — 3.8-fold lower, 47 nM
- C=CCNC(=O)c1c[nH]/c(=N\c2ccc(Oc3ccon3)cc2)n(Cc2ccc(Cl)cc2)c1=O [Compound I-450] — 8.5-fold lower, 21 nM
- O=C(NCc1ccccc1)c1c[nH]/c(=N\c2ccc(Oc3ccon3)cc2)n(Cc2ccc(Cl)cc2)c1=O [Compound I-451] — 1.7-fold lower, 104 nM
- O=C(NCC(F)(F)F)c1c[nH]/c(=N\c2ccc(Oc3ccon3)cc2)n(Cc2ccc(Cl)cc2)c1=O [Compound I-452] — 1.8-fold lower, 98 nM
- O=C(O)c1coc(-c2c[nH]/c(=N\c3ccc(Oc4ccon4)cc3)n(Cc3ccc(Cl)cc3)c2=O)n1 [Compound I-454] — within 1.5-fold, 160 nM
- CCn1c(=O)[nH]c(Nc2ccc(Oc3cccc(C#N)n3)cc2)c(Cc2ccc(Cl)cc2)c1=O [Compound I-456, 5-(4-chlorobenzyl)-6-[4-(6-cyano-2-pyridyloxy)phenylamino]-3-ethylpyrimidin-2,4(1H,3H)-dione] — 20-fold lower, 9 nM
- CCn1c(=O)[nH]c(Nc2ccc(Oc3cccc(C(=O)O)n3)cc2)c(Cc2ccc(Cl)cc2)c1=O [Compound I-457] — 20-fold lower, 9 nM
- CCn1c(=O)[nH]c(Nc2ccc(Oc3cccc(C(N)=O)n3)cc2)c(Cc2ccc(Cl)cc2)c1=O [Compound I-458] — 12-fold lower, 15 nM
- CCOC(=O)c1cn(Cc2ccc(Cl)cc2)c(Nc2ccc(Oc3ccc(F)cn3)cc2)cc1=O [Compound I-463, 1-(4-chloro-benzyl)-2-[4-(5-fluoro-2-pyridyloxy)phenylamino]-5-(ethoxycarbonyl)pyridin-4(1H)-one] — 6.9-fold lower, 26 nM
- CC(C)n1ccc(Nc2ccc(Oc3cccc(C(=O)O)n3)cc2)c(Cc2ccc(Cl)cc2)c1=O [Compound I-466] — 3.3-fold higher, 597 nM
- COC(=O)c1cccc(Oc2ccc(/N=c3\[nH]cc(C(F)(F)F)c(=O)n3Cc3ccc(Cl)cc3)cc2)n1 [Compound I-471] — 3.8-fold higher, 683 nM
- O=C(O)c1cccc(Oc2ccc(/N=c3\[nH]cc(C(F)(F)F)c(=O)n3Cc3ccc(Cl)cc3)cc2)n1 [Compound I-472] — 12-fold lower, 15 nM
- CCCn1c(=O)cc(Nc2ccc(Oc3cccc(C#N)c3)c(C)n2)n(Cc2ccc(C)cc2)c1=O [Compound I-473] — 6.2-fold lower, 29 nM
- CCCn1c(=O)cc(Nc2ccc(Oc3cccc(C(=O)O)c3)c(C)n2)n(Cc2ccc(C)cc2)c1=O [Compound I-474] — 36-fold lower, 5 nM
